Experiment: Erdafitinib batch release study in artificial urine at 37° C., HPLC
Type: physicochemical
Conditions: in solution / through in vitro study, HPLC PDA detection
Text: Scope: Load Erdafitinib into a limited number of proprietary delivery systems and perform a batch release study in artificial urine to determine release and stability of the active agent. Erdafitinib sourced from publicly available supplier having 99% purity. Obtained as fine yellow powder. Viscoprene® used as a hydrosetting gel carrier presenting as a high viscosity liquid. An encapsulant was used to provide a diffusion barrier around the Viscoprene/Erdafitinib matrix for some samples.
Formulation 1: Viscoprene and diluent release matrix. Formulation 2: Viscoprene release matrix. Formulation 3: Viscoprene in Encapsulant A. Formulation 4: Viscoprene in Encapsulant B. Step 1: Prepared release matrices (Erdafitinib in Viscoprene) with or without diluent (active matrix). Each study specimen included approximately 12 mg of drug. Step 2: Active matrix was encapsulated for Formulations 3 and 4. Step 3: Formulations were placed in artificial urine (USP method) at 37° C. Step 4: At time points, artificial urine was changed to fresh artificial urine. Step 5: Samples were analyzed for Erdafitinib content by HPLC.
An Isocratic HPLC method (non-stability indicating) able to identify Erdafitinib using a C18 column and water/acetonitrile mobile phase. Calibration curve generated with a R2 value of 0.9999. […] Sample preparation: Erdafitinib mixed readily into Viscoprene matrices. […]

Compound: COc1cc(OC)cc(N(CCNC(C)C)c2ccc3ncc(-c4cnn(C)c4)nc3c2)c1 [Erdafitinib, 1,2-Ethanediamine, N1-(3,5-dimethoxyphenyl)-N2-(1-methylethyl)-N1-(3-(1-methyl-1H-pyrazol-4-yl)-6-quinoxalinyl)-]
- Erdafitinib stability (in words): provisionally stable over a suitable timeframe
- Erdafitinib stability (in words) (listed as Erdatifinib): likely stable through in vitro study for extended duration
